Reference: ChEMBL document CHEMBL1201862, “PubChem BioAssay data set” (2004)
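Cultured in 96-well plates, cells were exposed to test compound for 48 hours across five concentrations. GI50 is the concentration that inhibits growth by half.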 Activity calls are given as the source filed them. Rule as the data show it: active = GI50 up to about 1.1 µM and inactive = higher.

Legend:
Test in all cases: NCI anticancer screen, dose series, 48 h
A549 = system: A549
ACHN = system: ACHN
CAKI-1 = system: CAKI-1
CCRF-CEM = system: CCRF-CEM
DMS-114 = system: DMS-114
HCC 2998 = system: HCC 2998
LOX IMVI = system: LOX IMVI
Malme-3M = system: Malme-3M
NCI-H460 = system: NCI-H460
NCI-H522 = system: NCI-H522
SK-MEL-5 = system: SK-MEL-5
SK-OV-3 = system: SK-OV-3
SN12C = system: SN12C
SNB-75 = system: SNB-75
SR = system: SR
TK-10 = system: TK-10
U-251 = system: U-251
BT-549 = system: BT-549
DU-145 = system: DU-145
MDA-MB-435 = system: MDA-MB-435

| Compound | GI50 (A549) | GI50 (ACHN) | GI50 (CAKI-1) | GI50 (CCRF-CEM) | GI50 (DMS-114) | GI50 (HCC 2998) | GI50 (LOX IMVI) | GI50 (Malme-3M) | GI50 (NCI-H460) | GI50 (NCI-H522) | GI50 (SK-MEL-5) | GI50 (SK-OV-3) | GI50 (SN12C) | GI50 (SNB-75) | GI50 (SR) | GI50 (TK-10) | GI50 (U-251) | GI50 (BT-549) | GI50 (DU-145) | GI50 (MDA-MB-435) |
| --- | --- | --- | --- | --- | --- | --- | --- | --- | --- | --- | --- | --- | --- | --- | --- | --- | --- | --- | --- | --- |
| Cc1cc(S(=O)(=O)O)c(NC(=O)C(=O)C2C=CCS2(=O)=O)cc1Cl (stereo unspecified) | > 100 µM (inactive) | > 100 µM (inactive) | > 100 µM (inactive) | > 100 µM (inactive) | > 100 µM (inactive) | > 100 µM (inactive) | > 100 µM (inactive) | > 100 µM (inactive) | > 100 µM (inactive) | > 100 µM (inactive) | > 100 µM (inactive) | > 100 µM (inactive) | > 100 µM (inactive) | > 100 µM (inactive) | > 100 µM (inactive) | > 100 µM (inactive) | > 100 µM (inactive) | – | – | – |
| O=C1N(c2ccccc2)C2(O)C(=O)c3ccccc3C2(O)N1c1ccccc1 (stereo unspecified) | > 100 µM (inactive) | > 100 µM (inactive) | > 100 µM (inactive) | > 100 µM (inactive) | > 100 µM (inactive) | > 100 µM (inactive) | > 100 µM (inactive) | > 100 µM (inactive) | > 100 µM (inactive) | > 100 µM (inactive) | > 100 µM (inactive) | > 100 µM (inactive) | > 100 µM (inactive) | > 100 µM (inactive) | > 100 µM (inactive) | > 100 µM (inactive) | > 100 µM (inactive) | – | – | – |
| CS(=O)(=O)OCCCCOS(C)(=O)=O [BUSULFAN] | 208 µM (inactive) | 172 µM (inactive) | 161 µM (inactive) | 145 µM (inactive) | 225 µM (inactive) | 183 µM (inactive) | 221 µM (inactive) | 242 µM (inactive) | 95.9 µM (inactive) | 239 µM (inactive) | 232 µM (inactive) | > 237 µM (inactive) | 233 µM (inactive) | 144 µM (inactive) | 87.9 µM (inactive) | > 250 µM (inactive) | 234 µM (inactive) | > 1000 µM (inactive) | 220 µM (inactive) | > 1000 µM (inactive) |
| C/C(=N\NC(=S)N(C)C)c1ncc[nH]1 | 3.38 µM (inactive) | 2.45 µM (inactive) | – | 2.82 µM (inactive) | 3.13 µM (inactive) | 3.52 µM (inactive) | 3.08 µM (inactive) | 3.36 µM (inactive) | 3.24 µM (inactive) | 2.62 µM (inactive) | 4.46 µM (inactive) | 3.87 µM (inactive) | 3.95 µM (inactive) | 7.57 µM (inactive) | 2.81 µM (inactive) | 13.3 µM (inactive) | 2.23 µM (inactive) | – | – | – |
| Cc1ccc(C2=[N+]([O-])c3ccccc3C2=O)cc1 | 46.7 µM (inactive) | 16 µM (inactive) | > 100 µM (inactive) | 11.9 µM (inactive) | 14.5 µM (inactive) | > 51.3 µM (inactive) | 16.8 µM (inactive) | 22.9 µM (inactive) | 36.3 µM (inactive) | 15.8 µM (inactive) | 13.6 µM (inactive) | > 100 µM (inactive) | 19.7 µM (inactive) | 44.4 µM (inactive) | 36.1 µM (inactive) | > 31.6 µM (inactive) | 19 µM (inactive) | – | – | – |
| O=C1c2ccccc2S[C@@H](O)[C@@H]2CCCN12 | > 100 µM (inactive) | > 100 µM (inactive) | – | > 100 µM (inactive) | > 100 µM (inactive) | > 100 µM (inactive) | > 100 µM (inactive) | > 100 µM (inactive) | > 100 µM (inactive) | > 100 µM (inactive) | > 100 µM (inactive) | 35.2 µM (inactive) | > 100 µM (inactive) | – | > 100 µM (inactive) | > 100 µM (inactive) | > 100 µM (inactive) | – | – | – |
| CCN(CC)C(=O)c1c(N2CCOCC2)cc(N(CC)CC)oc1=O | > 100 µM (inactive) | > 100 µM (inactive) | – | > 100 µM (inactive) | > 100 µM (inactive) | > 100 µM (inactive) | > 100 µM (inactive) | > 100 µM (inactive) | > 100 µM (inactive) | > 100 µM (inactive) | – | > 100 µM (inactive) | > 100 µM (inactive) | > 100 µM (inactive) | > 100 µM (inactive) | > 100 µM (inactive) | > 100 µM (inactive) | – | – | – |
| COc1cc2c(c(OC(C)=O)c1OC(C)=O)-c1ccc(SC)c(=O)cc1C(NC(C)=O)CC2 (stereo unspecified) | 3.73 µM (inactive) | 24 µM (inactive) | 11.2 µM (inactive) | 0.631 µM (active) | 0.618 µM (active) | 2.51 µM (inactive) | 1.13 µM (inactive) | 1.34 µM (inactive) | 3.15 µM (inactive) | 0.379 µM (active) | 0.631 µM (active) | > 19.5 µM (inactive) | 4.52 µM (inactive) | 0.255 µM (active) | 0.964 µM (active) | 28.7 µM (inactive) | 2.49 µM (inactive) | – | – | – |
| CCn1cc(C(=O)O)c(=O)c2cc(F)c(N3CCNCC3)nc21 [ENOXACIN] | > 100 µM (inactive) | > 100 µM (inactive) | – | > 100 µM (inactive) | > 100 µM (inactive) | > 100 µM (inactive) | 86.3 µM (inactive) | 74.1 µM (inactive) | > 100 µM (inactive) | 24.4 µM (inactive) | 87.5 µM (inactive) | > 100 µM (inactive) | 68.7 µM (inactive) | > 100 µM (inactive) | 77.8 µM (inactive) | > 100 µM (inactive) | 66.7 µM (inactive) | – | – | – |
| Clc1ccc(C[P+]2(c3ccccc3)CCCCC2)cc1.[O-][Cl+3]([O-])([O-])[O-] | > 100 µM (inactive) | > 100 µM (inactive) | – | 75.9 µM (inactive) | 50.4 µM (inactive) | 43.6 µM (inactive) | 77.3 µM (inactive) | 58.5 µM (inactive) | > 100 µM (inactive) | 28.8 µM (inactive) | 20.3 µM (inactive) | > 100 µM (inactive) | > 100 µM (inactive) | 37.1 µM (inactive) | 48.6 µM (inactive) | 77.8 µM (inactive) | 45.5 µM (inactive) | – | – | – |
